Laboratory results reported in paper PMC6080930 (The Journal of Cell Biology, 2018).

Biological target: adenylyl cyclase A (ACA); ACA-YFP (Dictyostelium discoideum, UniProt Q03100)
Conditions: labelled compound; 2 mM MnSO4, 2 mM MgSO4, Tris pH 8.0, 22°C, 10 min; lysed EVs

Chain of adenylyl cyclase A (ACA); ACA-YFP (Q03100 whole entry): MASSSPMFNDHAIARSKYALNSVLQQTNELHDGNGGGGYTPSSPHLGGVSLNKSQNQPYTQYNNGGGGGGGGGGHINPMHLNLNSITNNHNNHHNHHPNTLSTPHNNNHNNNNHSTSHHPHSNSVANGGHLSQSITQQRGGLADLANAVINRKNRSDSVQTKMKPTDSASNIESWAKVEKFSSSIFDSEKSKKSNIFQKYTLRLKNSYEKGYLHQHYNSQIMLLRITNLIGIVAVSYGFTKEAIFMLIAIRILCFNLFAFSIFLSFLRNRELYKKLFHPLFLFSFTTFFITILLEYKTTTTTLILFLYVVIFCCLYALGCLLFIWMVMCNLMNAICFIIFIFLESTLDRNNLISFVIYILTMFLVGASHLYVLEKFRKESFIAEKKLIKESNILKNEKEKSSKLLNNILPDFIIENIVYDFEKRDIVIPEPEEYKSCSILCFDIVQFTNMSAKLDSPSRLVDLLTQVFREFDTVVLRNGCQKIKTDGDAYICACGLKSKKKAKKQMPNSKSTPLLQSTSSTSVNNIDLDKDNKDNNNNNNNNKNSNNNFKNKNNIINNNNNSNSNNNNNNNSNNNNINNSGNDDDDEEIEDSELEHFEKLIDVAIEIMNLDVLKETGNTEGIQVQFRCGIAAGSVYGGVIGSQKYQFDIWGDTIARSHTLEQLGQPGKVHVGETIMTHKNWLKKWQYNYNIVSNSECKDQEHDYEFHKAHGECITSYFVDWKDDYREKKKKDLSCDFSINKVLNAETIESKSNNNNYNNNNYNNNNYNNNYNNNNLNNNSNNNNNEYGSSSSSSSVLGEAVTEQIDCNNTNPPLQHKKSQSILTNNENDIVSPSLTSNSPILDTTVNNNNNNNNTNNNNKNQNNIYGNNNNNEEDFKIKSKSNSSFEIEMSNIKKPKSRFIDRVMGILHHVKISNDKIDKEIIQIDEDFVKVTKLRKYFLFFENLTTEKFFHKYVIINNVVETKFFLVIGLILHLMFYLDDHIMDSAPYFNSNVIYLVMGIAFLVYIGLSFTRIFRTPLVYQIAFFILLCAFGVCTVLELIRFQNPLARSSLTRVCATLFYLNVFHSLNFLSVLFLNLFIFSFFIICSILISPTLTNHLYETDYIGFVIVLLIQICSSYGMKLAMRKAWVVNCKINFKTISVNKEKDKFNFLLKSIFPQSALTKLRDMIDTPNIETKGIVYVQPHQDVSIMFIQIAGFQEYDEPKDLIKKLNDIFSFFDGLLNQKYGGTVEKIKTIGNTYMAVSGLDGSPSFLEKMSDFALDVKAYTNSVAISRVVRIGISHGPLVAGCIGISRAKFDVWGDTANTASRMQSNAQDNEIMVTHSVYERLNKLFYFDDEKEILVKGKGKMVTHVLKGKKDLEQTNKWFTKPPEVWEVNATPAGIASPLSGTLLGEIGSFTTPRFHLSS

## Nc1ncnc2c1ncn2[C@@H]1O[C@H](COP(=O)(O)OP(=O)(O)OP(=O)(O)O)[C@@H](O)[C@H]1O [ATP]
  conversion of [32P]ATP to [32P]cAMP, Dowex/alumina columns: MnSO4 induced an increase in adenylyl cyclase activity in ACA-YFP/aca^− EVs
